As a reminder, the TGI is the concentration giving total growth inhibition. A low value points to greater sensitivity of the cells. One may read the GI50 as the concentration that inhibits growth by half.

We go through 8 compounds from PubChem BioAssay (NCI).

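Dose response: 5 concentrations. Exposure: 48 h. Format: 96-well plates. Endpoint: linear interpolation; highest concentration if not reached. Here, GI50 denotes the concentration required for 50% inhibition of growth. TGI: concentration producing complete growth inhibition.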

Some test systems named below: UACC-257 melanoma; SW-620 colon; HT29 colon; TK-10 renal; CAKI-1 renal; COLO 205 colon; SF-539 CNS; OVCAR-8 ovarian; 786-0 renal; SF-295 CNS.
Common to all, as to test: DTP human tumour cell line panel, 48 h

For the compound `C=C=C(C(=O)OC)S(=O)c1ccc([N+](=O)[O-])cc1[N+](=O)[O-]` (stereo not given), the TGI is > 79.9 µM with UACC-257 melanoma; 36.3 µM in the experiment on SW-620 colon; 52.9 µM with HT29 colon; > 85.7 µM in the experiment on TK-10 renal; 63.1 µM in the experiment on CAKI-1 renal; 52.7 µM in the experiment on COLO 205 colon. Moreover, the TGI is 55.3 µM in the experiment with SF-539 CNS, 55.1 µM in the experiment on OVCAR-8 ovarian, > 66.6 µM in the experiment with 786-0 renal and > 100 µM in the experiment on SF-295 CNS.

`c1nnc(NCNc2nncs2)s1`: the TGI with UACC-257 melanoma, in the experiment on SW-620 colon, in the experiment on HT29 colon, with TK-10 renal, in the experiment on CAKI-1 renal and with COLO 205 colon was > 100 µM each time. Also, the TGI in the experiment with SF-539 CNS, in the experiment with OVCAR-8 ovarian, in the experiment with 786-0 renal and in the experiment with SF-295 CNS was > 100 µM in each case.

On to `COc1cc2nc(-c3ccc(C(F)(F)F)cc3)cc(OCCCN3CCCCC3)c2cc1OC`, for which the GI50 in the experiment on UACC-257 melanoma is 1.7 µM; with SW-620 colon, 2.91 µM; with HT29 colon, 0.415 µM; with TK-10 renal it was 7.81 µM; in the experiment on CAKI-1 renal, 0.272 µM; in the experiment with COLO 205 colon, 0.406 µM. Also, the GI50 with SF-539 CNS was 2080 nM; in the experiment with OVCAR-8 ovarian, 0.734 µM; in the experiment with 786-0 renal, 2.17 µM; in the experiment on SF-295 CNS, 0.53 µM. Besides, the TGI with UACC-257 melanoma was found to be 5.27 µM; with SW-620 colon, 13.3 µM; with HT29 colon it was 2.52 µM; in the experiment with TK-10 renal, 24.5 µM; in the experiment on CAKI-1 renal it was 5.05 µM; in the experiment with COLO 205 colon it was 1.94 µM. Further, the TGI in the experiment with SF-539 CNS turned out to be 8.32 µM; in the experiment on OVCAR-8 ovarian, 20.4 µM; in the experiment on 786-0 renal it was 6.59 µM; with SF-295 CNS it was 2.04 µM.

Regarding `Cc1cc(-c2nnc3n2CCCCC3)c(C)n1-c1ccc(Cl)c(Cl)c1`, the GI50 with UACC-257 melanoma is 12.7 µM; in the experiment with SW-620 colon, 17.5 µM; in the experiment on HT29 colon, 16 µM; in the experiment with TK-10 renal it was 20.1 µM; with CAKI-1 renal it was 22.3 µM; with COLO 205 colon, 10.6 µM. Also, the GI50 in the experiment on SF-539 CNS was 16600 nM; in the experiment with OVCAR-8 ovarian, 15.4 µM; with 786-0 renal, 22.9 µM; in the experiment with SF-295 CNS, 16.4 µM. Moreover, the TGI in the experiment with UACC-257 melanoma is 32.3 µM; in the experiment on SW-620 colon it was 50.9 µM; in the experiment on HT29 colon, 38.1 µM; in the experiment with TK-10 renal, 65.3 µM; in the experiment on CAKI-1 renal, > 100 µM; with COLO 205 colon, 25.1 µM. Besides, the total growth inhibition concentration (TGI) in the experiment with SF-539 CNS is 32.4 µM; in the experiment with OVCAR-8 ovarian it was 64.1 µM; with 786-0 renal it was 56.7 µM; with SF-295 CNS it was 52.5 µM.

Consider `CCOC(=O)c1cc(/C=C/C(C)=C/C(=O)OC)n(C)c1C`, for which the TGI in the experiment with UACC-257 melanoma, in the experiment on SW-620 colon, with HT29 colon, with TK-10 renal, in the experiment on CAKI-1 renal and in the experiment on COLO 205 colon was > 100 µM each time. For the same compound, the TGI in the experiment with SF-539 CNS, in the experiment with OVCAR-8 ovarian, in the experiment on 786-0 renal and in the experiment on SF-295 CNS was > 100 µM throughout.

For the compound `Cc1c2ccc(N(C)c3ccnc(Nc4cccc(S(N)(=O)=O)c4)n3)cc2nn1C`, the GI50 was 12.2 µM in the experiment with UACC-257 melanoma; 11.7 µM with SW-620 colon; 8.03 µM in the experiment on HT29 colon; 10.5 µM with TK-10 renal; 7.73 µM in the experiment on CAKI-1 renal; 12.5 µM in the experiment on COLO 205 colon. For the same compound, the GI50 in the experiment with SF-539 CNS was 2390 nM; with OVCAR-8 ovarian, 9.91 µM; with 786-0 renal it was 13.2 µM; in the experiment on SF-295 CNS, 6.81 µM. Further, the TGI in the experiment on UACC-257 melanoma is > 25 µM; in the experiment with SW-620 colon it was > 25 µM; in the experiment with HT29 colon, > 25 µM; with TK-10 renal, > 25 µM; in the experiment with CAKI-1 renal, 24.7 µM; in the experiment with COLO 205 colon it was > 25 µM. In addition, the TGI in the experiment with SF-539 CNS was > 20.4 µM; in the experiment with OVCAR-8 ovarian it was > 25 µM; with 786-0 renal, > 25 µM; with SF-295 CNS, > 19.9 µM.

For `COc1ccc(/C=C2\C(=O)N(C(=O)Cc3ccccc3)N=C2C)cc1OC`, the TGI with UACC-257 melanoma, with SW-620 colon, with HT29 colon, in the experiment with TK-10 renal, in the experiment with CAKI-1 renal and with COLO 205 colon was > 100 µM in each case. In addition, the total growth inhibition concentration (TGI) in the experiment on SF-539 CNS, with OVCAR-8 ovarian, in the experiment on 786-0 renal and in the experiment with SF-295 CNS was > 100 µM each time.

As for `OCC1OC(n2cnc3c(/C=C(/O)c4ccccc4)ncnc32)C(O)C1O` (stereo not given), the TGI in the experiment with UACC-257 melanoma is > 62.9 µM; in the experiment on SW-620 colon it was > 100 µM; in the experiment on HT29 colon, > 100 µM; with TK-10 renal it was 13.5 µM; in the experiment on CAKI-1 renal it was > 100 µM; in the experiment with COLO 205 colon it was 2.7 µM. For the same compound, the TGI with SF-539 CNS, in the experiment with OVCAR-8 ovarian, in the experiment on 786-0 renal and in the experiment with SF-295 CNS was > 100 µM each time.
